“Also recorded” adds a separate entry of the source.
Experiment: Part B: treatment-emergent cardiovascular adverse events (CVAEs)
Assay type: in vivo, human
Text: For the purpose of the present invention, the adverse events were graded as per the National Cancer Institute's, Common Terminology Criteria for Adverse Events (NCI-CTCAE) Version 4.03 and Version 5.0 (https://evs.nci.nih.gov/ftp1/CTCAE/About.html). It is a descriptive terminology which can be utilized for Adverse Event (AE) reporting.
AEs were graded as per NCI-CTCAE Version 5.0. In the present study, along with others most common AEs for which patients were monitored were thrombocytopenia, neutropenia and anemia, any AE reported by the patient after the completion of AE collection period and considered related to the study drug was reported.
Two CVAEs considered related to the compound of Formula I: one Grade 2 hypertension and one fatal intracranial hemorrhage (ICH) with concomitant disease progression to BP CML.
Table 22 below lists the medical history of patients and CVAEs that were reported in the patient during treatment.

[1] = Prior Ponatinib (N = 22), Any grade
[2] = Prior Ponatinib (N = 22), Grade 3/4
[3] = ≤2 prior TKIs (N = 18), Any grade
[4] = ≤2 prior TKIs (N = 18), Grade 3/4
[5] = ≥3 prior TKIs (N = 35), Any grade
[6] = ≥3 prior TKIs (N = 35), Grade 3/4

In the case of Cc1ccc(C(=O)NNC(=O)c2c(C)cccc2Cl)cc1C#Cc1cnc2ccccc2c1 [compound of Formula I, N′-(2-chloro-6-methylbenzoyl)-4-methyl-3-[2-(3-quinolyl)ethynyl]-benzohydrazide], the “patients with CVAEs” value (1 patient, less than or equal to 2 TKIs) is reported as 5.5%, the “patients with CVAEs” value (10 patients, prior ponatinib) is reported as 45.4% and the “CVAEs unrelated to the compound” value (12 patients with CV history) is reported as 10. The “patients with CVAEs” value (13 patients, more than or equal to 3 TKIs) was 37.1%, the “patients with CVAEs, any grade” value (14 patients out of 53) was 26.4% and the “Treatment-emergent cardiovascular AE: Adverse Events Cluster - Cardiac and vascular events (%)” value (Overall (N = 53), Any grade) was “(26.4%)”. The “Treatment-emergent cardiovascular AE: Angina Pectoris (%)” value (Overall (N = 53), Any grade) was “(3.7%)”, the “Treatment-emergent cardiovascular AE: Arteriosclerosis (%)” value (Overall (N = 53), Any grade) was “(1.8%)” and the “Treatment-emergent cardiovascular AE: Cerebral haemorrhage (%)” value (Overall (N = 53), Any grade) was “(1.8%)”. For the same compound, the “Treatment-emergent cardiovascular AE: Congestive heart failure (%)” value (Overall (N = 53), Any grade) was “(1.8%)”, the “Treatment-emergent cardiovascular AE: Hot flush (%)” value (Overall (N = 53), Any grade) was “(1.8%)” and the “Treatment-emergent cardiovascular AE: Hypertension (%)” value (Overall (N = 53), Any grade) was “(7.5%)”. The “Treatment-emergent cardiovascular AE: Hypotension (%)” value (Overall (N = 53), Any grade) was “(1.8%)”, the “Treatment-emergent cardiovascular AE: Intermittent claudication (%)” value (Overall (N = 53), Any grade) was “(1.8%)” and the “Treatment-emergent cardiovascular AE: Intracranial haemorrhage (%)” value (Overall (N = 53), Any grade) was “(1.8%)”. The “Treatment-emergent cardiovascular AE: Mouth haemorrhage (%)” value (Overall (N = 53), Any grade) was “(1.8%)”, the “Treatment-emergent cardiovascular AE: Palpitations (%)” value (Overall (N = 53), Any grade) was “(1.8%)” and the “Treatment-emergent cardiovascular AE: Syncope (%)” value (Overall (N = 53), Any grade) was “(1.8%)”. The “Treatment-emergent cardiovascular AE: Transient ischaemic attack (%)” value (Overall (N = 53), Any grade) was “(1.8%)”, the “Treatment-emergent cardiovascular AE: Troponin I increased (%)” value (Overall (N = 53), Any grade) was “(1.8%)” and the “Treatment-emergent cardiovascular AEs: Deaths (%)” value (Overall (N = 53), Any grade) was “(1.8%)”. The “Treatment-emergent cardiovascular AEs: Dose interruption and restart (%)” value (Overall (N = 53), Any grade) was “(3.7%)”, the “Treatment-emergent cardiovascular AEs: Leading to drug withdrawal (%)” value (Overall (N = 53), Any grade) was “(1.8%)” and the “Treatment-emergent cardiovascular AEs: Related to study drug (%)” value (Overall (N = 53), Any grade) was “(3.7%)”. For the same compound, the “Treatment-emergent cardiovascular AEs: Serious Adverse Events (%)” value (Overall (N = 53), Any grade) was “(7.5%)”, the “Treatment-emergent cardiovascular AE: Adverse Events Cluster - Cardiac and vascular events (%)” value (Overall (N = 53), Grade 3/4) was “(5.6%)” and the “Treatment-emergent cardiovascular AE: Congestive heart failure (%)” value (Overall (N = 53), Grade 3/4) was “(1.8%)”. The “Treatment-emergent cardiovascular AE: Hypertension (%)” value (Overall (N = 53), Grade 3/4) was “(1.8%)”, the “Treatment-emergent cardiovascular AE: Syncope (%)” value (Overall (N = 53), Grade 3/4) was “(1.8%)” and the “Treatment-emergent cardiovascular AEs: Dose interruption and restart (%)” value (Overall (N = 53), Grade 3/4) was “(1.8%)”. The “Treatment-emergent cardiovascular AEs: Serious Adverse Events (%)” value (Overall (N = 53), Grade 3/4) was “(1.8%)”, the CVAEs during treatment (Patient 25000603, history: Hypertension, Myocardial ischaemia, prior TKI therapy 3, ponatinib received No) was “Hypertension” and the CVAEs during treatment (Patient 35600503, history: Intracranial hemorrhage, prior TKI therapy 3, ponatinib received No) was “Oral hemorrhage”. For the same compound, the CVAEs during treatment (Patient 35600706, history: Acute myocardial infarction, myocardial ischemia, prior TKI therapy 3, ponatinib received No) was “Hypertension”, the CVAEs during treatment (Patient 41000101, history: Hypertension, prior TKI therapy 3, ponatinib received No) was “Angina pectoris,; also recorded: Palpitations,; also recorded: Arteriosclerosis” and the CVAEs during treatment (Patient 84000202, history: Hypertension, prior TKI therapy 4, ponatinib received Yes) was “Hypertension,; also recorded: Hypotension”. The CVAEs during treatment (Patient 84000203, history: Hypertension, prior TKI therapy 6, ponatinib received Yes) was “Hot flush”, the CVAEs during treatment (Patient 84000206, history: Bradycardia, Hypertension, prior TKI therapy 5, ponatinib received Yes) was “Angina pectoris” and the “Treatment-emergent cardiovascular AE: Adverse Events Cluster - Cardiac and vascular events (%)” value [1] was “(45.4%)”. The “Treatment-emergent cardiovascular AE: Angina Pectoris (%)” value [1] was “(4.5%)”, the “Treatment-emergent cardiovascular AE: Cerebral haemorrhage (%)” value [1] was “(4.5%)” and the “Treatment-emergent cardiovascular AE: Congestive heart failure (%)” value [1] was “(4.5%)”. For the same compound, the “Treatment-emergent cardiovascular AE: Hot flush (%)” value [1] was “(4.5%)”, the “Treatment-emergent cardiovascular AE: Hypertension (%)” value [1] was “(9.1%)” and the “Treatment-emergent cardiovascular AE: Hypotension (%)” value [1] was “(4.5%)”. The “Treatment-emergent cardiovascular AE: Intermittent claudication (%)” value [1] was “(4.5%)”, the “Treatment-emergent cardiovascular AE: Syncope (%)” value [1] was “(4.5%)” and the “Treatment-emergent cardiovascular AE: Transient ischaemic attack (%)” value [1] was “(4.5%)”. The “Treatment-emergent cardiovascular AE: Troponin I increased (%)” value [1] was “(4.5%)”, the “Treatment-emergent cardiovascular AEs: Serious Adverse Events (%)” value [1] was “(13.6%)” and the “Treatment-emergent cardiovascular AE: Adverse Events Cluster - Cardiac and vascular events (%)” value [2] was “(13.6%)”. For the same compound, the “Treatment-emergent cardiovascular AE: Congestive heart failure (%)” value [2] was “(4.5%)”, the “Treatment-emergent cardiovascular AE: Hypertension (%)” value [2] was “(4.5%)” and the “Treatment-emergent cardiovascular AE: Syncope (%)” value [2] was “(4.5%)”. The “Treatment-emergent cardiovascular AEs: Serious Adverse Events (%)” value [2] was “(4.5%)”, the “CVAEs related to the compound” value (grade 2 hypertension and fatal intracranial hemorrhage) was 2 and the “major CVAEs” value (highest dose of 204 mg, as long as 24 months) was “did not result in major CVAEs”. For the same compound, the “permanent discontinuation due to CVAEs” value (human, in vivo) was 1, the “dose modifications due to CVAEs” value (in vivo) was “No dose modifications” and the “patients reporting CVAEs on study” value (of thirty patients with medical history of CVAEs) was 12 patients. The “grade 3 or 4 CVAEs” value (out of 53) was 5.6%, the “withdrawal criteria based on QTcF prolongation or safety laboratory tests” value (patients) was “No subject reached the subject withdrawal criteria” and the “Treatment-emergent cardiovascular AE: Adverse Events Cluster - Cardiac and vascular events (%)” value [3] was “(5.5%)”. For the same compound, the “Treatment-emergent cardiovascular AE: Congestive heart failure (%)” value [3] was “(5.5%)”, the “Treatment-emergent cardiovascular AE: Adverse Events Cluster - Cardiac and vascular events (%)” value [4] was “(5.5%)” and the “Treatment-emergent cardiovascular AE: Congestive heart failure (%)” value [4] was “(5.5%)”. For the same compound, the “Treatment-emergent cardiovascular AE: Adverse Events Cluster - Cardiac and vascular events (%)” value [5] was “(37.1%)”, the “Treatment-emergent cardiovascular AE: Angina Pectoris (%)” value [5] was “(5.7%)” and the “Treatment-emergent cardiovascular AE: Arteriosclerosis (%)” value [5] was “(2.8%)”. The “Treatment-emergent cardiovascular AE: Cerebral haemorrhage (%)” value [5] was “(2.8%)”, the “Treatment-emergent cardiovascular AE: Hot flush (%)” value [5] was “(2.8%)” and the “Treatment-emergent cardiovascular AE: Hypertension (%)” value [5] was “(11.4%)”. For the same compound, the “Treatment-emergent cardiovascular AE: Hypotension (%)” value [5] was “(2.8%)”, the “Treatment-emergent cardiovascular AE: Intermittent claudication (%)” value [5] was “(2.8%)” and the “Treatment-emergent cardiovascular AE: Intracranial haemorrhage (%)” value [5] was “(2.8%)”. For the same compound, the “Treatment-emergent cardiovascular AE: Mouth haemorrhage (%)” value [5] was “(2.8%)”, the “Treatment-emergent cardiovascular AE: Palpitations (%)” value [5] was “(2.8%)” and the “Treatment-emergent cardiovascular AE: Syncope (%)” value [5] was “(2.8%)”. The “Treatment-emergent cardiovascular AE: Transient ischaemic attack (%)” value [5] was “(2.8%)”, the “Treatment-emergent cardiovascular AE: Troponin I increased (%)” value [5] was “(2.8%)” and the “Treatment-emergent cardiovascular AE: Ventricular Extrasystoles (%)” value [5] was “(2.8%)”. For the same compound, the “Treatment-emergent cardiovascular AEs: Deaths (%)” value [5] was “(2.8%)”, the “Treatment-emergent cardiovascular AEs: Dose interruption and restart (%)” value [5] was “(5.7%)” and the “Treatment-emergent cardiovascular AEs: Leading to drug withdrawal (%)” value [5] was “(2.8%)”. For the same compound, the “Treatment-emergent cardiovascular AEs: Related to study drug (%)” value [5] was “(5.7%)”, the “Treatment-emergent cardiovascular AEs: Serious Adverse Events (%)” value [5] was “(11.4%)” and the “Treatment-emergent cardiovascular AE: Adverse Events Cluster - Cardiac and vascular events (%)” value [6] was “(5.7%)”. The “Treatment-emergent cardiovascular AE: Hypertension (%)” value [6] was “(2.8%)”, the “Treatment-emergent cardiovascular AE: Syncope (%)” value [6] was “(2.8%)” and the “Treatment-emergent cardiovascular AEs: Dose interruption and restart (%)” value [6] was “(2.8%)”. The “Treatment-emergent cardiovascular AEs: Serious Adverse Events (%)” value [6] was “(2.8%)”.

Source: patent US20260069584A1, “METHODS OF TREATING CHRONIC MYELOID LEUKEMIA USING THE TYROSINE KINASE INHIBITOR VODOBATINIB” (Sun Pharma Advanced Research Company Ltd., priority 2022, published 2026)
